Test system: HT-1080 (ATCC, CCL-121) cells
Experiment: HT-1080 cell viability assay with ferroptosis inducer RSL3 (Cell Titer-Glo)
Type: cell-based
Conditions: Homo sapiens; HT-1080 cells treated with RSL3; 3-fold, 10-point dilution, 1.1 μM highest concentration; Table 2; read-out: EC50 (nM), ferroptosis inhibitory activity
Outline: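 EC50 was derived by sigmoidal dose-response regression of CellTiter-Glo luminescence viability, expressed relative to untreated wells. Compounds were tested in a ten-point, threefold dilution series (highest 1.1 μM) in the presence of the ferroptosis inducer RSL3. HT-1080 cells had been seeded at 6000 per well and grown overnight first.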

SMILES | EC50 [nM]
COc1cc(N2CCC(C)CC2)cc(F)c1Nc1ccc2c(c1)n(C)c(=O)n2C [Compound 272, 5-((2-fluoro-6-methoxy-4-(4-methylpiperidin-1-yl)phenyl)amino)-1,3-dimethyl-1,3-dihydro-2H-benzo[d]imidazol-2-one] | 0.1 to 100
CC1CCN(c2ccc(Nc3ccc4c(c3)oc(=O)n4C)cc2)CC1 [Compound 273, 3-methyl-6-((4-(4-methylpiperidin-1-yl)phenyl)amino) benzo[d]oxazol-2(3H)-one] | 0.1 to 100
CC1CCN(c2c(F)cc(Nc3ccc4c(c3)n(C)c(=O)n4C)cc2F)CC1 [Compound 274, 5-((3,5-difluoro-4-(4-methylpiperidin-1-yl)phenyl)amino)-1,3-dimethyl-1,3-dihydro-2H-benzo[d]imidazol-2-one] | 0.1 to 100
Cc1c(Nc2ccc3c(c2)n(C)c(=O)n3C)ccc(N2CCC(C)CC2)c1F [Compound 275, 5-((3-fluoro-2-methyl-4-(4-methylpiperidin-1-yl)phenyl)amino)-1,3-dimethyl-1,3-dihydro-2H-benzo[d]imidazol-2-one] | 0.1 to 100
CC1CCN(c2ccc(Nc3ccc4c(c3)n(C)c(=O)n4C)cn2)CC1 [Compound 276, 1,3-dimethyl-5-((6-(4-methylpiperidin-1-yl)pyridin-3-yl)amino)-1,3-dihydro-2H-benzo[d]imidazol-2-one] | 0.1 to 100
CN(C)c1cc(Nc2ccc3c(c2)n(C)c(=O)n3C)cc(N(C)C)c1 [Compound 277, 5-((3,5-bis(dimethylamino)phenyl)amino)-1,3-dimethyl-1,3-dihydro-2H-benzo[d]imidazol-2-one] | 0.1 to 100
Cc1cc(N2CCC(C)CC2)cc(C)c1Nc1ccc2c(c1)n(C)c(=O)n2C [Compound 278, 5-((2,6-dimethyl-4-(4-methylpiperidin-1-yl)phenyl)amino)-1,3-dimethyl-1,3-dihydro-2H-benzo[d]imidazol-2-one] | 0.1 to 100
CC1CN(c2ccc(Nc3ccc4c(c3)n(C)c(=O)n4C)cc2)CC(C)O1 (stereo not drawn) [Compound 279, 5-((4-(2,6-dimethylmorpholino)phenyl)amino)-1,3-dimethyl-1,3-dihydro-2H-benzo[d]imidazol-2-one] | 0.1 to 100
Cc1cc(N2CCC(C)CC2)ccc1Nc1ccc2c(c1)n(C)c(=O)n2C [Compound 280, 1,3-dimethyl-5-((2-methyl-4-(4-methylpiperidin-1-yl)phenyl)amino)-1,3-dihydro-2H-benzo[d]imidazol-2-one] | 0.1 to 100
Cc1c(Nc2ccc3c(c2)n(C)c(=O)n3C)ccc(N2CCC(C)CC2)c1C [Compound 281, 5-((2,3-dimethyl-4-(4-methylpiperidin-1-yl)phenyl)amino)-1,3-dimethyl-1,3-dihydro-2H-benzo[d]imidazol-2-one] | 0.1 to 100
Cc1cc(Nc2ccc3c(c2)n(C)c(=O)n3C)ccc1N1CCC(C)CC1 [Compound 282, 1,3-dimethyl-5-((3-methyl-4-(4-methylpiperidin-1-yl)phenyl)amino)-1,3-dihydro-2H-benzo[d]imidazol-2-one] | 0.1 to 100
CC1CCN(c2ccc(Nc3ccc4c(c3)n(C)c(=O)n4C)cc2F)CC1 [Compound 283, 5-((3-fluoro-4-(4-methylpiperidin-1-yl)phenyl)amino)-1,3-dimethyl-1,3-dihydro-2H-benzo[d]imidazol-2-one] | 0.1 to 100
CN(C)c1ccc(Nc2ccc3c(c2)n(C)c(=O)n3C)cc1 [Compound 284, 5-((4-(dimethylamino)phenyl)amino)-1,3-dimethyl-1,3-dihydro-2H-benzo[d]imidazol-2-one] | 0.1 to 100
CC1CCN(c2ccc(Nc3ccc4c(c3)ncn4C)cc2)CC1 [Compound 285, 1-methyl-N-(4-(4-methylpiperidin-1-yl)phenyl)-1H-benzo[d]imidazol-5-amine] | 0.1 to 100
CC1CCN(c2ccc(Nc3ccc4oc(=O)n(C)c4c3)cc2)CC1 [Compound 286, 3-methyl-5-((4-(4-methylpiperidin-1-yl)phenyl)amino)benzo[d]oxazol-2(3H)-one] | 0.1 to 100
CC1CCN(c2ccc(Nc3ccc4c(c3)n(C)c(=O)n4C)cc2)CC1 [Compound 287, 1,3-dimethyl-5-((4-(4-methylpiperidin-1-yl)phenyl)amino)-1,3-dihydro-2H-benzo[d]imidazol-2-one] | 0.1 to 100
CN1CCOc2cc(Nc3ccc4c(c3)n(C)c(=O)n4C)ccc21 [Compound 288, 1,3-dimethyl-5-((4-methyl-3,4-dihydro-2H-benzo[b][1,4]oxazin-7-yl)amino)-1,3-dihydro-2H-benzo[d]imidazol-2-one] | 0.1 to 100
CN1CCc2cc(Nc3ccc4c(c3)n(C)c(=O)n4C)ccc21 [Compound 289, 1,3-dimethyl-5-((1-methylindolin-5-yl)amino)-1,3-dihydro-2H-benzo[d]imidazol-2-one] | 0.1 to 100
C#Cc1ccc(Nc2ccc3c(c2)n(C)c(=O)n3C)cc1 [Compound 290, 5-((4-ethynylphenyl)amino)-1,3-dimethyl-1,3-dihydro-2H-benzo[d]imidazol-2-one] | 0.1 to 100
CN1Cc2cc(Nc3ccc(N4CCC(C(F)(F)F)CC4)cc3)ccc2C1=N [Compound 291, 1-imino-2-methyl-N-(4-(4-(trifluoromethyl)piperidin-1-yl)phenyl) isoindolin-5-amine] | 0.1 to 100

SMILES | EC50 [nM]
Cn1c(=O)n(C)c2cc(Nc3ccc(C(=O)N4CCCC4)cc3)ccc21 [Compound 292, 1,3-dimethyl-5-((4-(pyrrolidine-1-carbonyl)phenyl)amino)-1,3-dihydro-2H-benzo[d]imidazol-2-one] | 1000 to 10000
CN1C(=O)C(C)(C)c2cc(Nc3ccc(N4CCC(C(F)(F)F)CC4)cc3)ccc21 [Compound 293, 1,3,3-trimethyl-5-((4-(4-(trifluoromethyl)piperidin-1-yl)phenyl)amino)indolin-2-one] | 0.1 to 100
CC1CCN(c2ccc(Nc3ccc4c(c3)CN(C)C4=N)cc2)CC1 [Compound 294, 1-imino-2-methyl-N-(4-(4-methylpiperidin-1-yl)phenyl)isoindolin-5-amine] | 0.1 to 100
Cn1c(=O)n(C)c2cc(Nc3ccc(CN4CCCC4)cc3)ccc21 [Compound 295, 1,3-dimethyl-5-((4-(pyrrolidin-1-ylmethyl)phenyl)amino)-1,3-dihydro-2H-benzo[d]imidazol-2-one] | 1000 to 10000
CCCCCOc1ccc(Nc2ccc3c(c2)n(C)c(=O)n3C)cc1OC [Compound 296, 5-((3-methoxy-4-(pentyloxy)phenyl)amino)-1,3-dimethyl-1,3-dihydro-2H-benzo[d]imidazol-2-one] | 0.1 to 100
Cn1c(=O)n(C)c2cc(Nc3ccc(N4CCC(F)(F)CC4)cc3)ccc21 [Compound 297, 5-((4-(4,4-difluoropiperidin-1-yl)phenyl)amino)-1,3-dimethyl-1,3-dihydro-2H-benzo[d]imidazol-2-one] | 0.1 to 100
CC1CCN(c2ccc(Nc3ccc4c(c3)n(C)c(=O)n4C)cc2Cl)CC1 [Compound 298, 5-((3-chloro-4-(4-methylpiperidin-1-yl)phenyl)amino)-1,3-dimethyl-1,3-dihydro-2H-benzo[d]imidazol-2-one] | 0.1 to 100
Cn1c(=O)n(C)c2cc(Nc3ccc(N4CCC(F)CC4)cc3)ccc21 [Compound 299, 5-((4-(4-fluoropiperidin-1-yl)phenyl)amino)-1,3-dimethyl-1,3-dihydro-2H-benzo[d]imidazol-2-one] | 0.1 to 100
Cn1nnc2cc(Nc3ccc(N4CCC(C(F)(F)F)CC4)cc3)ccc21 [Compound 300, 1-methyl-N-(4-(4-(trifluoromethyl)piperidin-1-yl)phenyl)-1H-benzo[d][1,2,3]triazol-5-amine] | 0.1 to 100
COc1c(Nc2ccc(N3CCC(C(F)(F)F)CC3)cc2)ccc2c1CN(C)C2=O [Compound 301, 4-methoxy-2-methyl-5-((4-(4-(trifluoromethyl)piperidin-1-yl)phenyl)amino)isoindolin-1-one] | 0.1 to 100
Cn1c(=N)n(C)c2cc(Nc3ccc(N4CCC(C(F)(F)F)CC4)cc3)ccc21 [Compound 302, 2-imino-1,3-dimethyl-N-(4-(4-(trifluoromethyl)piperidin-1-yl)phenyl)-2,3-dihydro-1H-benzo[d]imidazol-5-amine] | 0.1 to 100
CN1Cc2cc(Nc3ccc(N4CCCCC4)c(N(C)C)c3)ccc2C1=O [Compound 303, 5-((3-(dimethylamino)-4-(piperidin-1-yl)phenyl)amino)-2-methylisoindolin-1-one] | 0.1 to 100
CN(C)c1cc(Nc2ccc3c(=O)n(C)[nH]c3c2)ccc1N1CCCCC1 [Compound 304, 6-((3-(dimethylamino)-4-(piperidin-1-yl)phenyl)amino)-2-methyl-1,2-dihydro-3H-indazol-3-one] | 0.1 to 100
Cn1c(=O)n(C)c2cc(Nc3ccc(-n4ccnc4)cc3)ccc21 [Compound 305, 5-((4-(1H-imidazol-1-yl)phenyl)amino)-1,3-dimethyl-1,3-dihydro-2H-benzo[d]imidazol-2-one] | 100 to 1000
CCOC(=O)c1ccc(Nc2ccc3c(c2)n(C)c(=O)n3C)cc1 [Compound 306, ethyl 4-((1,3-dimethyl-2-oxo-2,3-dihydro-1H-benzo[d]imidazol-5-yl)amino)benzoate] | 100 to 1000
Cn1c(=O)n(C)c2cc(Nc3ccc4c(c3)OCCO4)ccc21 [Compound 307, 5-((2,3-dihydrobenzo[b][1,4]dioxin-6-yl)amino)-1,3-dimethyl-1,3-dihydro-2H-benzo[d]imidazol-2-one] | 100 to 1000
CN(C)c1cccc(Nc2ccc3c(c2)n(C)c(=O)n3C)c1 [Compound 308, 5-((3-(dimethylamino)phenyl)amino)-1,3-dimethyl-1,3-dihydro-2H-benzo[d]imidazol-2-one] | 0.1 to 100
CCOc1ccc(Nc2ccc3c(c2)n(C)c(=O)n3C)cc1 [Compound 309, 5-((4-ethoxyphenyl)amino)-1,3-dimethyl-1,3-dihydro-2H-benzo[d]imidazol-2-one] | 0.1 to 100
Cn1c(=O)n(C)c2cc(Nc3ccc4nccn4c3)ccc21 [Compound 310, 5-(imidazo[1,2-a]pyridin-6-ylamino)-1,3-dimethyl-1,3-dihydro-2H-benzo[d]imidazol-2-one] | 0.1 to 100

From patent US20240327393A1 (SIRONAX LTD., priority 2021, published 2024)
